Experimental findings from patent US12275703B2, “Highly purified batches of pharmaceutical grade migalastat and methods of producing the same” (Amicus Therapeutics, Inc., priority 2020, dated 2025) are described below.

This data set concerns bacterial reverse mutation. As to the kind of experiment: bacterial reverse mutation (Ames) test. It is filed as cell-based. The settings on record: for Ames Positive?: bacterial reverse mutation (Ames) test; for Designated Genotoxin?: designation from Derek and Ames outcome. As to the method:
The starting materials, reagents, intermediates, and process impurities generated in the manufacturing process for migalastat hydrochloride were assessed for their potential genotoxicity using in silico (Derek for Windows v13 Lhasa Ltd) screening software. The chemical structures which were DEREK negative were evaluated using Leadscope (Model Applier and Expert Alerts). […] Where possible, the genotoxicity of these materials was then assessed via the use of the bacterial reverse mutation (Ames) test.

Turning to `CC(C)(C)C(=O)OC[C@@H](OS(=O)(=O)C(F)(F)F)[C@@H]1O[C@@H](OC(=O)C(C)(C)C)[C@H](OC(=O)C(C)(C)C)[C@H]1OC(=O)C(C)(C)C` [Compound D], the “Ames Positive?” value is “not sufficiently stable for Ames testing” and the “Designated Genotoxin?” value is on record as “designated as genotoxins”. For the same compound, where the note is “listed as drawing 74”, the “Ames Positive?” value is “Insufficiently stable for Ames test” and the “Designated Genotoxin?” value is “Yes”.
Take `Cl.O[C@@H]1[C@H](O)[C@@H](O)CN[C@@H]1CCl` [Compound X]: the “Ames Positive?” value is reported as “Ames positive” and the “Designated Genotoxin?” value is recorded as “confirmed as genotoxins”. For the same compound, where the note is “listed as drawing 80”, the “Ames Positive?” value is listed as “Yes” and the “Designated Genotoxin?” value was “Yes”.
Consider `CC(C)(C)C(=O)OC[C@H](N=[N+]=[N-])[C@@H]1O[C@@H](OC(=O)C(C)(C)C)[C@H](OC(=O)C(C)(C)C)[C@H]1OC(=O)C(C)(C)C` [Compound N], for which the “Ames Positive?” value was “No” and the “Designated Genotoxin?” value is given as “No”.
In the case of `[N-]=[N+]=N[C@H](CO)[C@@H]1O[C@@H](O)[C@H](O)[C@H]1O` [Compound Q], the “Ames Positive?” value is recorded as “Ames positive” and the “Designated Genotoxin?” value is given as “confirmed as genotoxins”. Also, where the note is “listed as drawing 78”, the “Ames Positive?” value is “Yes” and the “Designated Genotoxin?” value was “Yes”.
Regarding `CCCl` [Ethyl chloride], the “Ames Positive?” value is on record as “Yes” and the “Designated Genotoxin?” value is “Yes”.
For `CC(C)(C)C(=O)OC[C@H](OS(=O)(=O)C(F)(F)F)[C@@H]1O[C@@H](OC(=O)C(C)(C)C)[C@H](OC(=O)C(C)(C)C)[C@H]1OC(=O)C(C)(C)C` [Compound F], the “Ames Positive?” value is listed as “not sufficiently stable for Ames testing” and the “Designated Genotoxin?” value is listed as “designated as genotoxins”. Under “listed as drawing 75”, the “Ames Positive?” value is “Insufficiently stable for Ames test” and the “Designated Genotoxin?” value was “Yes”.
As to `CC(C)(C)C(=O)OC[C@@H](N=[N+]=[N-])[C@@H]1O[C@@H](OC(=O)C(C)(C)C)[C@H](OC(=O)C(C)(C)C)[C@H]1OC(=O)C(C)(C)C` [5-azido-5-deoxy-1,2,3,6-tetrapivaloyl-D-galactofuranoside], the “Ames Positive?” value is “No” and the “Designated Genotoxin?” value was “No”.
With `[N-]=[N+]=N[C@@H]1CO[C@@](O)(CO)[C@@H](O)[C@H]1O` [Compound P], the “Ames Positive?” value is reported as “Ames positive” and the “Designated Genotoxin?” value was “confirmed as genotoxins”. Also, for the setting “listed as drawing 79”, the “Ames Positive?” value is on record as “Yes” and the “Designated Genotoxin?” value is on record as “Yes”.
